Biological target: T1, Lysosomal acid glucosylceramidase (Homo sapiens, UniProt P04062)
T1 sequence (P04062 whole entry): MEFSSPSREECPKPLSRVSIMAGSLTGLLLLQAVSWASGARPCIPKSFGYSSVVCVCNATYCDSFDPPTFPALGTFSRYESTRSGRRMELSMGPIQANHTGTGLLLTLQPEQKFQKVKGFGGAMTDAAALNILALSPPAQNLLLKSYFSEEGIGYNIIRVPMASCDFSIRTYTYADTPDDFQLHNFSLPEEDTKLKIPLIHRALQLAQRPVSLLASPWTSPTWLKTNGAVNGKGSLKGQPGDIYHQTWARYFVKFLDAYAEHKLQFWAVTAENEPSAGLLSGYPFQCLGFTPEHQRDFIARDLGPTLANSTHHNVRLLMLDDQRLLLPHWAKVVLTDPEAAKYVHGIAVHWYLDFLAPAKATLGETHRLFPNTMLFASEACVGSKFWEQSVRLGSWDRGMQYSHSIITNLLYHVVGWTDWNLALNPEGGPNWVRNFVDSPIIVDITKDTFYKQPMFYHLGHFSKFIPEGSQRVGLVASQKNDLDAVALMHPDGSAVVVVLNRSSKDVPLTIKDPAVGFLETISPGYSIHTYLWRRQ

- Ki: 1400 nM
Compound: CCCC1(CCC)NC[C@@H](O)[C@H](O)[C@H]1CO

Source: ChEMBL document CHEMBL5726543, “Glucocerebrosidase modulators and uses thereof” (2017)
